These compounds were tested against T1, CCR2 (Homo sapiens, UniProt P41597) (assay: MCP-1 Receptor Binding Assay in THP-1 Cells). Details: 0.5 nM 125I labeled MCP-1, 2 hours at 30° C., less polar isomer tested where stated, read-out: Inhibition of MCP-1 Binding IC50, CCR2 Binding.
T1 construct: host or cells: THP-1 human monocytic cells
T1 sequence (P41597 1-360 isoform P41597-2): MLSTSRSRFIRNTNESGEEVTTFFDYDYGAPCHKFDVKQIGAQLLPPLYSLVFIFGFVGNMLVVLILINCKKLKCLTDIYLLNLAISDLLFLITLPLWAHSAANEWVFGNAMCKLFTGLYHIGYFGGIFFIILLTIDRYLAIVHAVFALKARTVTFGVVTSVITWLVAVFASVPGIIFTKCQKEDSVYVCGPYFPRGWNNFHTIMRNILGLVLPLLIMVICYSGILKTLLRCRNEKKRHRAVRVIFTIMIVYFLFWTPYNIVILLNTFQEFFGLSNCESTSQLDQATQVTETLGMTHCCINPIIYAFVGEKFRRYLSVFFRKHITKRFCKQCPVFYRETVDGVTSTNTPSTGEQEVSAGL
Procedure: MCP-1 Receptor Binding Assay in THP-1 Cells
Human monocytic cell line THP-1 cells were obtained from American Type Culture Collection (Manassas, Va., USA). The THP-1 cells were grown in RPMI-1640 (RPMI: Roswell Park Memorial Institute Medium-cell culture growth media) supplemented with 10% fetal bovine serum in a humidified 5% CO2 atmosphere at 37° C. The cell density was maintained […].
THP-1 (cells were incubated with 0.5 nM ^125I labeled MCP-1 (Perkin-Elmer Life Sciences, Inc. Boston, Mass.) in the presence of varying concentrations of either unlabeled MCP-1 (R & D Systems, Minneapolis, Minn.) or test compound for 2 hours at 30° C. in a 96 well plate. Cells were then harvested onto a filter plate, dried, and 20 μL of Microscint 20 was added to each well. Plates were counted in a TopCount NXT, Microplate Scintillation & Luminescence Counter (Perkin-Elmer Life Sciences, Inc. Boston, Mass.). Blank values (buffer only) were subtracted from all values and drug treated values were compared to vehicle treated values. 1 μM cold MCP-1 was used for nonspecific binding.
Where an IC50 value was not obtained for a particular compound, the percent inhibition is provided at a test concentration of 25 μM.

`O=C(CNc1noc2ccc(C(F)(F)F)cc12)NC1CN(C2CCC(O)(c3nccs3)CC2)C1` (stereo not shown) [Example 4, N-[1-(4-Hydroxy-4-thiazol-2-yl-cyclohexyl)-azetidin-3-yl]-2-(5-trifluoromethyl-benzo[d]isoxazol-3-ylamino)-acetamide] and `O=C(CNc1noc2ccc(C(F)(F)F)cc12)NC1CN(C2CCC(O)(c3cncs3)CC2)C1` (stereo not shown) [Example 3, N-[1-(4-Hydroxy-4-thiazol-5-yl-cyclohexyl)-azetidin-3-yl]-2-(5-trifluoromethyl-benzo[d]isoxazol-3-ylamino)-acetamide] are the same in IC50: 31 nM for the first, 31 nM for the second.

Going from `C=CCOC1CCC(N2CC(NC(=O)CNc3nn(C)c4ccc(C(F)(F)F)cc34)C2)CC1` (stereo not shown) [Example 37, N-[1-(4-Allyloxy-cyclohexyl)-azetidin-3-yl]-2-(1-methyl-5-trifluoromethyl-1H-indazol-3-ylamino)-acetamide] to `CCOC1CCC(N2CC(NC(=O)CNc3nn(C)c4ccc(C(F)(F)F)cc34)C2)CC1` (stereo not shown) [Example 36, N-[1-(4-Ethoxy-cyclohexyl)-azetidin-3-yl]-2-(1-methyl-5-trifluoromethyl-1H-indazol-3-ylamino)-acetamide], the IC50 rises from 136 nM to 228 nM (1.7-fold). The first is the more potent here.

Compared with `COc1ccc(C2(O)CCC(N3CC(NC(=O)CNc4nn(C)c5ccc(OC(F)(F)F)cc45)C3)CC2)cn1` (stereo not shown) [Example 57], `Cn1nc(NCC(=O)NC2CN(C3CCC(O)(c4nccs4)CC3)C2)c2cc(OC(F)(F)F)ccc21` (stereo not shown) [Example 54, N-[1-(4-Hydroxy-4-thiazol-2-yl-cyclohexyl)-azetidin-3-yl]-2-(1-methyl-5-trifluoromethoxy-1H-indazol-3-ylamino)-acetamide] is 1.7-fold lower in IC50: 60 nM for the first, 35 nM for the second.

First: O=C(CNc1n[nH]c2ccc(C(F)(F)F)cc12)NC1CN(C2CCC(c3ccc4c(c3)OCO4)CC2)C1 (stereo not shown) [Example 45, N-[1-(4-Benzo[1,3]dioxol-5-yl-cyclohexyl)-azetidin-3-yl]-2-(5-trifluoromethyl-1H-indazol-3-ylamino)-acetamide]
Second: CC(C)C1CCC(N2CC(NC(=O)CNc3n[nH]c4ccc(C(F)(F)F)cc34)C2)CC1 (stereo not shown) [Example 52, N-[1-(4-Isopropyl-cyclohexyl)-azetidin-3-yl]-2-(5-trifluoromethyl-1H-indazol-3-ylamino)-acet amide]
The IC50 of the first is 56-fold lower: 6.6 nM for the first, 370 nM for the second.

First: CCc1ncc(C2(O)CCC(N3CC(NC(=O)CNc4nn(CC(F)(F)F)c5ccc(C(F)(F)F)cc45)C3)CC2)s1 (stereo not shown) [Example 73, N-{1-[4-(2-Ethyl-thiazol-5-yl)-4-hydroxy-cyclohexyl]-azetidin-3-yl}-2-[1-(2,2,2-trifluoro-ethyl)-5-trifluoromethyl-1H-indazol-3-ylamino]-acetamide]
Second: CC(C)c1ncc(C2(O)CCC(N3CC(NC(=O)CNc4nn(C)c5ccc(C(F)(F)F)cc45)C3)CC2)s1 (stereo not shown) [Example 24, N-{1-[4-Hydroxy-4-(2-isopropyl-thiazol-5-yl)-cyclohexyl]-azetidin-3-yl}-2-(1-methyl-5-trifluoromethyl-1H-indazol-3-ylamino)-acetamide]
The IC50 of the first is 30-fold higher: 160 nM for the first, 5.3 nM for the second.

First: CCOC(=O)C1CCC(N2CC(NC(=O)CNc3n[nH]c4ccc(C(F)(F)F)cc34)C2)CC1 (stereo not shown) [Example 50, 4-{3-[2-(5-Trifluoromethyl-1H-indazol-3-ylamino)-acetylamino]-azetidin-1-yl}-cyclohexane carboxylic acid ethyl ester]
Second: C=CCn1nc(NCC(=O)NC2CN(C3CCC(C(=O)OCC)CC3)C2)c2cc(C(F)(F)F)ccc21 (stereo not shown) [Example 94, 4-{3-[2-(1-Allyl-5-trifluoromethyl-1H-indazol-3-ylamino)-acetylamino]-azetidin-1-yl}-cyclohexanecarboxylic acid ethyl ester]
The IC50 of the first is 2-fold lower: 27 nM for the first, 53 nM for the second.

Going from `CC(C)C1CCC(N2CC(NC(=O)CNc3noc4ccc(C(F)(F)F)cc34)C2)CC1` (stereo not shown) [Example 7, N-[1-(4-Isopropyl-cyclohexyl)-azetidin-3-yl]-2-(5-trifluoromethyl-benzo[d]isoxazol-3-ylamino)-acetamide] to `N#CC1CCC(N2CC(NC(=O)CNc3noc4ccc(C(F)(F)F)cc34)C2)CC1` (stereo not shown) [Example 13, N-[1-(4-Cyano-cyclohexyl)-azetidin-3-yl]-2-(5-trifluoromethyl-benzo[d]isoxazol-3-ylamino)-acetamide], the IC50 rises from 170 nM to 450 nM (2.6-fold).

Compared with `CCOC(=O)C1CCC(N2CC(NC(=O)CNc3nn(C)c4ccc(OC(F)(F)F)cc34)C2)CC1` (single isomer, unassigned) [Example 58], `CCOC(=O)C1CCC(N2CC(NC(=O)CNc3noc4ccc(OC(F)(F)F)cc34)C2)CC1` (stereo not shown) [Example 16, 4-{3-[2-(5-Trifluoromethoxy-benzo[d]isoxazol-3-ylamino)-acetylamino]-azetidin-1-yl}-cyclohexanecarboxylic acid ethyl ester] is 1.6-fold higher in IC50: 45 nM for the first, 71 nM for the second.

First: Cn1nc(NCC(=O)NC2CN(C3CCC(O)(c4cncs4)CC3)C2)c2cc(C(F)C(F)(F)F)ccc21 (stereo not shown) [Example 65, N-[1-(4-Hydroxy-4-thiazol-5-yl-cyclohexyl)-azetidin-3-yl]-2-[1-methyl-5-(1,2,2,2-tetrafluoro-ethyl)-1H-indazol-3-ylamino]-acetamide]
Second: Cn1nc(NCC(=O)NC2CN(C3CCC(O)(c4cncs4)CC3)C2)c2cc(C(O)C(F)(F)F)ccc21 (stereo not shown) [Example 61, N-[1-(4-Hydroxy-4-thiazol-5-yl-cyclohexyl)-azetidin-3-yl]-2-[1-methyl-5-(2,2,2-trifluoro-1-hydroxy-ethyl)-1H-indazol-3-ylamino]-acetamide]
The IC50 of the first is 17-fold lower: 100 nM for the first, 1700 nM for the second.

First: O=C(CNc1n[nH]c2ccc(C(F)(F)F)nc12)NC1CN([C@H]2CC[C@@](O)(c3cncs3)CC2)C1 [Example 104, N-(1-((1R,4R)-4-hydroxy-4-(thiazol-5-yl)cyclohexyl)azetidin-3-yl)-2-((5-(trifluoromethyl)-1H-pyrazolo[4,3-b]pyridin-3-yl)amino)acetamide]
Second: Cn1nc(NCC(=O)NC2CN(C3CCC(O)(c4ccccc4)CC3)C2)c2cc(C(F)(F)F)ccc21 (stereo not shown) [Example 29, N-[1-(4-Hydroxy-4-phenyl-cyclohexyl)-azetidin-3-yl]-2-(1-methyl-5-trifluoromethyl-1H-indazol-3-ylamino)-acetamide]
The IC50 of the first is 12-fold higher: 230 nM for the first, 19 nM for the second.

First: CCOC(=O)C1CCC(N2CC(NC(=O)CNc3nn(Cc4ccccc4)c4ccc(C(F)(F)F)cc34)C2)CC1 (stereo not shown) [Example 97, 4-{3-[2-(1-Benzyl-5-trifluoromethyl-1H-indazol-3-ylamino)-acetylamino]-azetidin-1-yl}-cyclohexane carboxylic acid ethyl ester]
Second: CCn1nc(NCC(=O)NC2CN(C3CCC(C(C)C)CC3)C2)c2cc(C(F)(F)F)ccc21 (stereo not shown) [Example 71, 2-(1-Ethyl-5-trifluoromethyl-1H-indazol-3-ylamino)-N-[1-(4-isopropyl-cyclohexyl)-azetidin-3-yl]-acetamide]
The IC50 of the first is 4.3-fold lower: 170 nM for the first, 730 nM for the second. The first is the more potent here.

Going from `CC(C)(C)NC(=O)n1nc(NCC(=O)NC2CN(C3CCC(O[Si](C)(C)C(C)(C)C)CC3)C2)c2cc(C(F)(F)F)ccc21` (stereo not shown) [Example 84, 3-[({1-[4-(tert-Butyl-dimethyl-silanyloxy)-cyclohexyl]-azetidin-3-ylcarbamoyl}-methyl)-amino]-5-trifluoromethyl-indazole-1-carboxylic acid tert-butylamide] to `Cn1nc(NCC(=O)NC2CN(C3CCC(NC(=O)OC(C)(C)C)CC3)C2)c2cc(C(F)(F)F)ccc21` (stereo not shown) [Example 31, (4-{3-[2-(1-Methyl-5-trifluoromethyl-1H-indazol-3-ylamino)-acetylamino]-azetidin-1-yl}-cyclohexyl)-carbamic acid tert-butyl ester], the IC50 falls from 870 nM to 76 nM (11-fold).

Compared with `O=C(CNc1n[nH]c2ccc(C(F)(F)F)cc12)NC1CN(C2CCC(n3ccccc3=O)CC2)C1` (stereo not shown) [Example 53, N-{1-[4-(2-Oxo-2H-pyridin-1-yl)-cyclohexyl]-azetidin-3-yl}-2-(5-trifluoromethyl-1H-indazol-3-ylamino)-acetamide], `NC(=O)n1nc(NCC(=O)NC2CN(C3CCC(O)CC3)C2)c2cc(C(F)(F)F)ccc21` (stereo not shown) [Example 85, 3-({[1-(4-Hydroxy-cyclohexyl)-azetidin-3-ylcarbamoyl]-methyl}-amino)-5-trifluoromethyl-indazole-1-carboxylic acid amide] is 8.4-fold higher in IC50: 63 nM for the first, 530 nM for the second. The first is the more potent here.

Going from `CCC(O)[C@H]1CC[C@@H](N2CC(NC(=O)CNc3n[nH]c4ncc(C(F)(F)F)cc34)C2)CC1` (single isomer, unassigned) [Example 105] to `CC(C)(C)OC(=O)NC1CCC(N2CC(NC(=O)CNc3noc4ccc(C(F)(F)F)cc34)C2)CC1` (stereo not shown) [Example 10, (4-{3-[2-(5-Trifluoromethyl-benzo[d]isoxazol-3-ylamino)-acetylamino]-azetidin-1-yl}-cyclohexyl)-carbamic acid tert-butyl ester], the IC50 rises from 330 nM to 750 nM (2.3-fold). The first is the more potent here.

Source: patent US8436023B2, “Cyclohexyl-azetidinyl antagonists of CCR2” (Janssen Pharmaceutica N.V., priority 2010, dated 2013)
